# From patent US20030032774A1, “Novel opioid peptides for the treatment of pain” (priority 1994, published 2003)
# pIC50, pKi: −log10 of the molar value. Read-outs that look alike come from different tables or passages of the source. Square brackets hold non-standard residues; d marks the D form. Peptide text beside a SMILES is read from it. * marks the point of attachment. Phe(4-NO2) = N[C@@H](Cc1ccc([N+](=O)[O-])cc1)C(=O)O; Phe(4-N3) = [N-]=[N+]=Nc1ccc(C[C@H](N)C(=O)O)cc1; 1Nal = N[C@@H](Cc1cccc2ccccc12)C(=O)O; 2Nal = N[C@@H](Cc1ccc2ccccc2c1)C(=O)O; NMeF = CN[C@@H](Cc1ccccc1)C(=O)O; Tic = O=C(O)[C@@H]1Cc2ccccc2CN1; dNle = CCCC[C@@H](N)C(=O)O; dAbu = CC[C@@H](N)C(=O)O; Ac5c = NC1(C(=O)O)CCCC1; Aib = CC(C)(N)C(=O)O; Bn = c1ccc(C*)cc1
# Experiments:
# μ receptor = target: T1, μ receptor (Rattus norvegicus, UniProt P33535); assay: Radioligand binding assay, μ opioid receptor ((3H)-DAMGO, brain membranes)
# T1 construct: the brains (minus the cerebellum) were removed, placed in ice-cold saline solution, and then homogenized; from tissue; host or cells: rat brain (minus cerebellum) membranes
# Protocol: PBQ (phenyl-ρ-benzoquinone) induced writhing in mice is an assessment of both central and peripheral analgesia (see Sigmund, et al., Proc. Soc. Exp. Biol. Med. 95:729 (1957)). Central analgesia is determined by the inhibition of a hot-plate response in mice (see, Wolfe, et al., J. Pharmacol. Exp. Ther. 80:300 (1944)). Assays measuring opioid receptor binding affinities for μ and δ receptors as well as the GPI assay were determined through experimental protocol set out in Schiller et al. (Biophys. Res. Commun. 85:1322 (1975)). The references by Sigmund, et al., Wolfe, et al., and Schiller, et al. are each hereby incorporated by reference.
# Male Sprague-Dawley rats weighing between 350-450 g were sacrificed by inhalation of CO2. The rats were decapitated and the brains (minus the cerebellum) were removed, placed in ice-cold saline solution, and then homogenized in ice-cold 50 mM Tris buffer pH 7.4 (10 ml/brain). Membranes were centrifuged at 14000 rpm for 30 min. at 4° C. The pellets were re-suspended in approximately 6 ml/brain of ice-cold Tris buffer 50 mM pH 7.4 and stored at −78° C. until ready for use. Protein quantification of the brain homogenate was conducted according to protein assay kit purchased (Bio-Rad).
# (^3H)-DAMGO and (^3H)-DAGLE were used as radioligands for the μ and δ receptors, respectively. Radioligand 50 μl, membranes 100 μl, and serially diluted test compound were incubated for 1 hr at 22° C. Nonspecific binding was determined using a 500 fold excess of unlabeled ligand in the presence of tracer and membranes. Free ligand was separated from bound by filtration through Whatman GF/B paper (presoaked in polyethylenimine 1% aqueous solution) and rinsing with ice-cold 50 mM Tris pH 7.4 using a Brandel cell harvester. The filters were dried and radioactivity was counted in a 24 well microplate in the presence of 500 μl scintillant per well. Radioactivity was measured using a Wallace 1450 Microbeta counter. Ki's for the various compounds were determined from the IC50 according to the Cheng and Prusoff equation.
# μ receptors = μ receptors (Cavia porcellus, UniProt P97266); assay: Guinea Pig Ileum (GPI) assay, longitudinal muscle preparation
# Protocol: The activity of the peptide compounds on μ receptors was determined using the Guinea Pig Ileum (GPI) assay (longitudinal muscle preparation) according to the procedures described in Schiller et al., Biophys. Res. Commun. 85:1322 (1975).
# [1] = test system: PBQ induced writhing in mice; assay: PBQ (phenylquinone)-induced writhing assay; type: in vivo, mouse; conditions: mouse s.c.
# Protocol: The test was performed on CD #1 male mice weighing between 18 and 22 g. Mice were weighed, marked and then injected, by the intraperitoneal route, with 0.3 ml/20 g by weight of a solution of phenylquinone at 0.02%. The contortions which appeared during a 15 minute time period following the injection were counted. The phenylquinone was injected at time intervals of 5, 20 or 60 minutes after administration of the compound (or medium, or standard) by subcutaneous route. It was injected at time intervals of 60 minutes after the administration of the compound (or medium, or standard) by oral route;
# The 0.02% phenylquinone solution was prepared as follows: 20 mg of phenylquinone was dissolved in 5 ml ethanol 90% (Sigma). The dissolved phenylquinone was slowly added to 95 ml of distilled water continuously shaken and preheated (not boiled). The phenylquinone solution was, at all times protected from light and a new solution was prepared every day for the test. Each group usually contained 10 mice. If an antagonist, such as naloxone, was used, it was administered 20 minutes before the compound (or the medium, or the standard) by the intraperitoneal route.
# Writhing assays were performed on CD#1 male mice weighing between […]. Assays were carried out as described in Example 3 and results are summarized below in Table 2.
# T1 sequence (P33535 whole entry): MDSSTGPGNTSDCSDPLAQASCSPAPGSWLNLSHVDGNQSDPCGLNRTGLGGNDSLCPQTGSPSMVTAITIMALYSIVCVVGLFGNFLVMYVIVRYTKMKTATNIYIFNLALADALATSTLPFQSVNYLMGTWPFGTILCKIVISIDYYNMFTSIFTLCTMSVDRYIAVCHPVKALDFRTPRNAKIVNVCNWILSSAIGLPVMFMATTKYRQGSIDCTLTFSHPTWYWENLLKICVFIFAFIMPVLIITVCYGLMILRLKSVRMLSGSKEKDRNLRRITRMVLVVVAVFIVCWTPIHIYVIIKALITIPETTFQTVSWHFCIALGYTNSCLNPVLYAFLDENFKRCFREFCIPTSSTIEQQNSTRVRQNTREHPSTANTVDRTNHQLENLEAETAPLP
# μ receptors, sequence (P97266 whole entry, looked up): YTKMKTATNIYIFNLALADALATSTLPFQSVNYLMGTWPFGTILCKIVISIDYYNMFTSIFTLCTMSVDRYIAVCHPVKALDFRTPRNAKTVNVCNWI
Compound,"pKi (μ receptor; Ki^μ, Table 1)",ED50(PBQ) ([1]; 20 min post administration) [mg/kg],further results
"NC(=O)[C@H](Cc1ccccc1)NC(=O)[C@H](Cc1ccccc1)NC(=O)[C@@H](Cc1ccccc1)NC(=O)[C@@H](N)Cc1ccc(O)cc1 [BCH753, H-Tyr-D-Phe-Phe-Phe-NH2] (H-Y[dF]FF-NH2)",8.44,>20,"pIC50 (μ receptors; GPI(IC50), Table 1): 6.61"
"CC(C)(NC(=O)[C@@H](N)Cc1ccc(O)cc1)C(=O)N[C@@H](Cc1ccccc1)C(=O)N[C@@H](Cc1ccccc1)C(N)=O [BCH754, H-Tyr-Aib-Phe-Phe-NH2] (H-Y[Aib]FF-NH2)",–,>20,–
"CCCC[C@@H](NC(=O)[C@@H](N)Cc1ccc(O)cc1)C(=O)N[C@@H](Cc1ccccc1)C(=O)N[C@@H](Cc1ccccc1)C(N)=O [BCH755, H-Tyr-D-Nle-Phe-Phe-NH2] (H-Y[dNle]FF-NH2)",9.01,–,"pIC50 (μ receptors; GPI(IC50), Table 1): 7.82; ED50(PBQ) ([1]; 5 min.): 2.5 (5 min.) mg/kg"
"C[C@@H](NC(=O)[C@@H](N)Cc1ccc(O)cc1)C(=O)N[C@@H](Cc1ccccc1)C(=O)N[C@@H](Cc1ccc2ccccc2c1)C(N)=O [BCH757, H-Tyr-D-Ala-Phe-2′-Nal-NH2] (H-Y[dA]F[2Nal]-NH2)",9.18,–,"pIC50 (μ receptors; GPI(IC50), Table 1): 8.70; ED50(PBQ) ([1]; 5 min.): 1.1 (5 min.) mg/kg"
"C[C@@H](NC(=O)[C@@H](N)Cc1ccc(O)cc1)C(=O)N[C@@H](Cc1ccc2ccccc2c1)C(=O)N[C@@H](Cc1cccc2ccccc12)C(N)=O [BCH758, H-Tyr-D-Ala-2′-Nal-1′-Nal-NH2] (H-Y[dA][2Nal][1Nal]-NH2)",8.25,>20,–
"C[C@@H](NC(=O)[C@@H](N)Cc1ccc(O)cc1)C(=O)N[C@H](Cc1ccccc1)C(=O)N[C@@H](Cc1ccccc1)C(N)=O [BCH1775, H-Tyr-D-Ala-D-Phe-Phe-NH2] (H-Y[dA][dF]F-NH2)",–,–,pKi (μ receptor): 7.59; pIC50 (μ receptors): 6.03
"C[C@@H](NC(=O)[C@@H](N)Cc1ccc(O)cc1)C(=O)N[C@@H](Cc1ccccc1)C(=O)N[C@@H](Cc1ccc(N=[N+]=[N-])cc1)C(N)=O [BCH1778, H-Tyr-D-Ala-Phe-Phe(4-N3)—NH2] (H-Y[dA]F[Phe(4-N3)]-NH2)",8.83,–,"pIC50 (μ receptors; GPI(IC50), Table 1): 7.30"
"C[C@@H](NC(=O)[C@@H](N)Cc1ccc(O)cc1)C(=O)N[C@@H](Cc1ccc([N+](=O)[O-])cc1)C(=O)N[C@@H](Cc1ccccc1)C(N)=O [BCH1779, H-Tyr-D-Ala-Phe(4-NO2)-Phe-NH2] (H-Y[dA][Phe(4-NO2)]F-NH2)",7.25,–,"pIC50 (μ receptors; GPI(IC50), Table 1): 7.11"
"C[C@@H](NC(=O)[C@@H](N)Cc1ccc(O)cc1)C(=O)N[C@@H](Cc1ccccc1)C(=O)N1Cc2ccccc2C[C@H]1C(N)=O [BCH1780, H-Tyr-D-Ala-Phe-Tic-NH2] (H-Y[dA]F[Tic]-NH2)",7.90,–,–
"C[C@@H](NC(=O)[C@@H](N)Cc1ccc(O)cc1)C(=O)N[C@@H](Cc1ccccc1)C(=O)N(C)[C@@H](Cc1ccccc1)C(N)=O [BCH1781, H-Tyr-D-Ala-Phe-Phe(NMe)-NH2] (H-Y[dA]F[NMeF]-NH2)",7.65,–,"pIC50 (μ receptors; GPI(IC50), Table 1): 6.62"
"C[C@@H](NC(=O)[C@@H](N)Cc1ccc(O)cc1)C(=O)N[C@@H](Cc1cccc2ccccc12)C(=O)N[C@@H](Cc1cccc2ccccc12)C(N)=O [BCH1783, H-Tyr-D-Ala-1′-Nal-1′-Nal-NH2] (H-Y[dA][1Nal][1Nal]-NH2)",8.54,>20,–
"C[C@@H](NC(=O)[C@@H](N)Cc1ccc(O)cc1)C(=O)N[C@@H](Cc1c[nH]c2ccccc12)C(=O)N[C@@H](Cc1c[nH]c2ccccc12)C(N)=O [BCH1786, H-Tyr-D-Ala-Trp-Trp-NH2] (H-Y[dA]WW-NH2)",9.08,10,–
"CCCC[C@@H](NC(=O)[C@@H](N)Cc1ccc(O)cc1)C(=O)N[C@@H](Cc1ccccc1)C(=O)N[C@@H](Cc1c[nH]c2ccccc12)C(N)=O [BCH2208, H-Tyr-D-Nle-Phe-Trp-NH2] (H-Y[dNle]FW-NH2)",–,>3,–
"CCCC[C@@H](NC(=O)[C@@H](N)Cc1ccc(O)cc1)C(=O)N[C@@H](Cc1ccccc1)C(=O)N[C@@H](Cc1ccc2ccccc2c1)C(N)=O [BCH2211, H-Tyr-D-Nle-Phe-2′-Nal-NH2] (H-Y[dNle]F[2Nal]-NH2)",–,>10,–
"CCCC[C@@H](NC(=O)[C@@H](N)Cc1ccc(O)cc1)C(=O)N[C@@H](Cc1c[nH]c2ccccc12)C(=O)N[C@@H](Cc1ccccc1)C(N)=O [BCH2212, H-Tyr-D-Nle-Trp-Phe-NH2] (H-Y[dNle]WF-NH2)",–,>10,–
"C[C@@H](NC(=O)[C@@H](N)Cc1ccc(O)cc1)C(=O)N[C@@H](Cc1c[nH]c2ccccc12)C(=O)N[C@@H](Cc1ccc2ccccc2c1)C(N)=O [BCH2213, H-Tyr-D-Ala-Trp-2′-Nal-NH2] (H-Y[dA]W[2Nal]-NH2)",–,>5,–
"CCCC[C@@H](NC(=O)[C@@H](N)Cc1ccc(O)cc1)C(=O)N[C@@H](Cc1c[nH]c2ccccc12)C(=O)N[C@@H](Cc1ccc2ccccc2c1)C(N)=O [BCH2214, H-Tyr-D-Nle-Trp-2′-Nal-NH2] (H-Y[dNle]W[2Nal]-NH2)",–,15,–
"CCCC[C@@H](NC(=O)[C@@H](N)Cc1ccc(O)cc1)C(=O)N[C@@H](Cc1c[nH]c2ccccc12)C(=O)N[C@@H](Cc1c[nH]c2ccccc12)C(N)=O [BCH2217, H-Tyr-D-Nle-Trp-Trp-NH2] (H-Y[dNle]WW-NH2)",–,>5,–
"CC(C)[C@@H](NC(=O)[C@@H](N)Cc1ccc(O)cc1)C(=O)N[C@@H](Cc1ccccc1)C(=O)N[C@@H](Cc1ccccc1)C(N)=O [BCH2464, H-Tyr-D-Val-Phe-Phe-NH2] (H-Y[dV]FF-NH2)",–,>10,–
"CC(C)C[C@@H](NC(=O)[C@@H](N)Cc1ccc(O)cc1)C(=O)N[C@@H](Cc1ccccc1)C(=O)N[C@@H](Cc1ccccc1)C(N)=O [BCH2465, H-Tyr-D-Leu-Phe-Phe-NH2] (H-Y[dL]FF-NH2)",–,>10,–
"CC[C@@H](C)[C@@H](NC(=O)[C@@H](N)Cc1ccc(O)cc1)C(=O)N[C@@H](Cc1ccccc1)C(=O)N[C@@H](Cc1ccccc1)C(N)=O [BCH2473, H-Tyr-D-Ile-Phe-Phe-NH2] (H-Y[dI]FF-NH2)",–,>10,–
"CC[C@@H](NC(=O)[C@@H](N)Cc1ccc(O)cc1)C(=O)N[C@@H](Cc1ccccc1)C(=O)N[C@@H](Cc1ccccc1)C(N)=O [BCH2577, H-Tyr-D-Abu-Phe-Phe-NH2] (H-Y[dAbu]FF-NH2)",–,>10,–
"NC(=O)[C@H](Cc1ccccc1)NC(=O)[C@H](Cc1ccccc1)NC(=O)C1(NC(=O)[C@@H](N)Cc2ccc(O)cc2)CCCC1 [BCH2579, H-Tyr-Cle-Phe-Phe-NH2] (H-Y[Ac5c]FF-NH2)",–,>10,–
"C[C@H](O)[C@@H](NC(=O)[C@@H](N)Cc1ccc(O)cc1)C(=O)N[C@@H](Cc1ccccc1)C(=O)N[C@@H](Cc1ccccc1)C(N)=O [BCH2811, H-Tyr-D-Thr-Phe-Phe-NH2] (H-Y[dT]FF-NH2)",–,12,–
"C[C@@H](NC(=O)[C@@H](N)Cc1ccc(O)cc1)C(=O)N[C@@H](Cc1ccccc1)C(=O)N[C@@H](CSCc1ccccc1)C(N)=O [BCH3240, H-Tyr-D-Ala-Phe-Cys(Bzl)NH2] (H-Y[dA]FC(Bn)-NH2)",8.28,–,"pIC50 (μ receptors; GPI(IC50), Table 1): 8.04"
"N=C(N)NCCC[C@@H](NC(=O)[C@@H](N)Cc1ccc(O)cc1)C(=O)N[C@@H](Cc1ccccc1)C(=O)N[C@@H](CSCc1ccccc1)C(N)=O [BCH3241, H-Tyr-D-Arg-Phe-Cys(Bzl)NH2] (H-Y[dR]FC(Bn)-NH2)",8.16,–,"pIC50 (μ receptors; GPI(IC50), Table 1): 7.48"
H-Tyr-Chl-Phe-Phe-NH2 [BCH2578],–,>10,–
H-Tyr-∇Ala-Phe-Phe-NH2 [BCH1787],–,10,–
∇CH2Tyr-D-Ala-Phe-Phe-NH2 [BCH2202],–,>10,–
